In US20070128217A1 (priority 2003, published 2007):

Legend:
[1] = system: antibodies in sera from SARS patients (sera 1a, 1b, 2, 6, 37, 62, London, SARS-yellow, SARS-green); format: binding, human; set-up: Binding of serum 6 to linear peptides of protein X1 of SARS-CoV Urbani / Binding of serum 37 to linear peptides of protein X1 of SARS-CoV Urbani / Binding of serum 6 to looped/cyclic peptide (PEPSCAN-ELISA) / Binding of serum 37 to looped/cyclic peptide (PEPSCAN-ELISA) / Binding of serum 37 to looped/cyclic peptides of protein X1 of SARS-CoV Urbani / Binding of serum 6 to linear peptides of protein X2 / Binding of serum 37 to linear peptides of protein X2 / Binding of serum 37 to looped/cyclic peptides of protein X2 of SARS-CoV Urbani / Binding of serum 6 to linear peptides of protein M of SARS-CoV Urbani / Binding of serum 37 to linear peptides of protein M of SARS-CoV Urbani / Binding of serum 6 to looped/cyclic peptides of protein M of SARS-CoV Urbani / Binding of serum 37 to looped/cyclic peptides of protein M of SARS-CoV Urbani / Binding of serum 6 to linear peptides of protein X3 of SARS-CoV Urbani / Binding of serum 37 to linear peptides of protein X3 of SARS-CoV Urbani / Binding of serum 37 to looped/cyclic peptides of protein X3 of SARS-CoV Urbani / Binding of serum 6 to linear peptides of protein X4 of SARS-CoV Urbani / Binding of serum 37 to linear peptides of protein X4 of SARS-CoV Urbani / Binding of serum 37 to looped/cyclic peptides of protein X4 of SARS-CoV Urbani / Binding of serum 6 to linear peptides of protein X5 of SARS-CoV Urbani / Binding of serum 37 to linear peptides of protein X5 of SARS-CoV Urbani / Binding of serum 37 to looped/cyclic peptides of protein X5 of SARS-CoV Urbani / Binding of serum 6 to linear peptides of protein N of SARS-CoV Urbani / Binding of serum 37 to linear peptides of protein N of SARS-CoV Urbani / Binding of serum 6 to linear peptide (PEPSCAN-ELISA) / Binding of serum 1a to looped/cyclic peptides of protein N of SARS-CoV Urbani / Binding of serum 1b to looped/cyclic peptides of protein N of SARS-CoV Urbani / Binding of serum 2 to looped/cyclic peptides of protein N of SARS-CoV Urbani / Binding of serum 6 to looped/cyclic peptides of protein N of SARS-CoV Urbani / Binding of serum 37 to looped/cyclic peptides of protein N of SARS-CoV Urbani / Binding of serum 62 to looped/cyclic peptides of protein N of SARS-CoV Urbani / Binding of serum London to looped/cyclic peptides of protein N of SARS-CoV Urbani / Binding of serum SARS-green to looped/cyclic peptides of protein N of SARS-CoV Urbani: unit not given here
[2] = system: control sera (pooled serum of ten healthy LUMC hospital workers; commercial negative donor pooled serum from the Dutch bloodbank); format: binding, human; set-up: Binding of Control serum LUMC to linear peptides / Binding of Control serum Blood-bank to linear peptides / Binding of Control serum LUMC to looped peptides / Binding of Control Serum Blood-Bank to Looped peptides / Binding of Control serum LUMC to linear peptides of the protein M of SARS-CoV Urbani / Binding of Control serum Blood-bank to linear peptides of the protein M of SARS-CoV Urbani / Binding of Control serum LUMC to looped peptides of the protein M of SARS-CoV Urbani / Binding of Control Serum Blood-Bank to Looped peptides of the protein M of SARS-CoV Urbani: unit not given here
[3] = system: rabbit serum obtained by immunizing a rabbit with the SARS-CoV strain Frankfurt 1; format: binding; set-up: Binding of a rabbit serum to linear peptides / Binding of a rabbit serum to looped peptides / Rabbit serum linear peptides / Rabbit serum looped peptides / Binding of a rabbit serum to linear peptides of protein N of SARS-CoV Urbani (Rabbit serum linear peptides) / Binding of a rabbit serum to looped/cyclic peptides of protein N of SARS-CoV Urbani (Rabbit serum looped peptides): unit not given here
[4] = system: recombinant human anti-SARS-CoV antibody 03-018; format: binding; set-up: Binding of antibody 03-018 to linear peptides of the N protein of SARS-CoV Urbani / Binding of antibody 03-018 to looped/cyclic peptides of the N protein of SARS-CoV Urbani: unit not given here

Sequence	Binding of serum 1a to linear peptides of protein N of SARS-CoV Urbani [1]	Binding of serum 1a to looped/cyclic peptides of protein N of SARS-CoV Urbani [1]	Binding of serum 1b to linear peptides of protein N of SARS-CoV Urbani [1]	Binding of serum 1b to looped/cyclic peptides of protein N of SARS-CoV Urbani [1]	Binding of serum 2 to linear peptides of protein N of SARS-CoV Urbani [1]	Binding of serum 2 to looped/cyclic peptides of protein N of SARS-CoV Urbani [1]	Binding of serum 6 to linear peptides of protein N of SARS-CoV Urbani [1]	Binding of serum 6 to looped/cyclic peptides of protein N of SARS-CoV Urbani [1]	Binding of serum 37 to linear peptides of protein N of SARS-CoV Urbani [1]	Binding of serum 37 to looped/cyclic peptides of protein N of SARS-CoV Urbani [1]	Binding of serum 62 to linear peptides of protein N of SARS-CoV Urbani [1]	Binding of serum 62 to looped/cyclic peptides of protein N of SARS-CoV Urbani [1]	Binding of serum London to linear peptides of protein N of SARS-CoV Urbani [1]	Binding of serum London to looped/cyclic peptides of protein N of SARS-CoV Urbani [1]	Binding of serum SARS-green to looped/cyclic peptides of protein N of SARS-CoV Urbani [1]	Binding of serum SARS-yellow to looped/cyclic peptides of protein N of SARS-CoV Urbani [1]	Binding of a rabbit serum to linear peptides of protein N of SARS-CoV Urbani (Rabbit serum linear peptides) [3]	Binding of a rabbit serum to looped/cyclic peptides of protein N of SARS-CoV Urbani (Rabbit serum looped peptides) [3]	Binding of antibody 03-018 to linear peptides of the N protein of SARS-CoV Urbani [4]	Binding of antibody 03-018 to looped/cyclic peptides of the N protein of SARS-CoV Urbani [4]	further results
EAQPLPQRQKKQPTV	0.2	0.2	0.2	0.1	0.3	0.2	0.3	0.2	0.7	0.3	0.7	0.2	1.2	0.3	0.2	0.5	0.1	0.0	0.1	0.2	Binding of serum SARS-green to linear peptides of protein N of SARS-CoV Urbani [1]: 0.4; Binding of serum SARS-yellow to linear peptides of protein N of SARS-CoV Urbani [1]: 1.3; Control Serum Blood-Bank Looped peptides [2]: 0.4; Control serum Blood-bank linear peptides [2]: 0.6; Control serum LUMC linear peptides [2]: 0.7; Control serum LUMC looped peptides [2]: 0.4
EGALNTPKDHIGTRN	0.2	0.3	0.1	0.2	0.2	0.5	0.2	0.3	0.6	0.6	0.6	0.3	0.6	0.5	0.4	0.2	0.1	0.0	0.1	0.3	Binding of serum SARS-green to linear peptides of protein N of SARS-CoV Urbani [1]: 0.1; Binding of serum SARS-yellow to linear peptides of protein N of SARS-CoV Urbani [1]: 0.5; Binding of Control Serum Blood-Bank to Looped peptides [2]: 0.7; Binding of Control serum Blood-bank to linear peptides [2]: 0.7; Binding of Control serum LUMC to linear peptides [2]: 0.6; Binding of Control serum LUMC to looped peptides [2]: 0.5
EGIVWVATEGALNTP	0.3	0.3	0.2	0.2	0.3	0.4	0.2	0.2	0.8	0.7	0.7	0.6	0.5	0.3	0.4	0.6	0.1	0.4	0.1	0.2	Binding of serum SARS-green to linear peptides of protein N of SARS-CoV Urbani [1]: 0.4; Binding of serum SARS-yellow to linear peptides of protein N of SARS-CoV Urbani [1]: 0.6; Binding of Control Serum Blood-Bank to Looped peptides [2]: 0.6; Binding of Control serum Blood-bank to linear peptides [2]: 0.8; Binding of Control serum LUMC to linear peptides [2]: 0.8; Binding of Control serum LUMC to looped peptides [2]: 0.6
EGSRGGSQASSRSSS		0.4		0.3		0.4		0.6		0.6		0.4		0.4	0.7	0.7	0.2	0.7	0.1	0.2	Binding of serum 1a to linear peptide (PEPSCAN-ELISA) [1]: 0.3; Binding of serum 1b to linear peptide (PEPSCAN-ELISA) [1]: 0.2; Binding of serum 2 to linear peptide (PEPSCAN-ELISA) [1]: 0.3; Binding of serum 6 to linear peptide (PEPSCAN-ELISA) [1]: 0.4; Binding of serum 37 to linear peptide (PEPSCAN-ELISA) [1]: 0.9; Binding of serum 62 to linear peptide (PEPSCAN-ELISA) [1]: 0.8; Binding of serum London to linear peptide (PEPSCAN-ELISA) [1]: 0.5; Binding of serum SARS-green to linear peptide (PEPSCAN-ELISA) [1]: 0.6; Binding of serum SARS-yellow to linear peptide (PEPSCAN-ELISA) [1]: 0.6; Binding of Control Serum Blood-Bank to Looped peptides [2]: 0.7; Binding of Control serum Blood-bank to linear peptides [2]: 1.0; Binding of Control serum LUMC to linear peptides [2]: 1.0; Binding of Control serum LUMC to looped peptides [2]: 0.8
